Values quoted from earlier work, collected in US10426749B2, “Safflower oil emulsion as dietary supplement and preparation thereof” (INNOVITAMIN ORGANICS, LLC, priority 2011, dated 2019).

System: post-menopausal, obese women with type 2 diabetes
Settings: 8 grams daily for 16 weeks

## conjugated linoleic acid [CLA]
  metabolic parameters (trunk fat mass, HDL cholesterol, fasting glucose, insulin sensitivity, C-reactive protein): did not significantly alter
